Holding throughout (test): NCI anticancer screen, dose series, 48 h
For test [1], the system named is KM12 colon.
In test [2] the test system is MALME-3M melanoma.
The test system of test [3] is MDA-MB-231 breast.
The test system of test [4] is MDA-MB-435.
Test [5] relates to OVCAR-4 ovarian.
Test [6] has as its system OVCAR-5 ovarian.
The test system of test [7] is PC-3 prostate.
Test [8] concerns SF-268 CNS.
Test [9] has as its system SW-620 colon.
The subject of test [10] is UO-31 renal.

Each structure is given as a SMILES string.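 Cells were grown in 96-well plates and exposed to each compound for 48 hours at five concentrations; endpoints were interpolated linearly between bracketing concentrations, or set to the highest concentration if not reached. Abbreviation: GI50, concentration required for 50% inhibition of growth. TGI is the concentration that stops growth completely.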 Bounds are passed on as bounds.

As to `CC[C@@H]1CC[C@@H]2[C@H](CC[C@]3(C)[C@@H](O)CC[C@@H]23)[C@H]1C(=O)O`, the TGI in [1], in test [2], in [3], in test [4], in [5] and in test [6] was more than 100 µM throughout. The TGI in test [7], in test [8], in test [9] and in [10] was more than 100 µM in each case.
As for `Cc1cc(-c2nc3ccccc3s2)ccc1NS(=O)(=O)O`, the TGI in test [1] is more than 55.4 µM; in [2] it was more than 100 µM; in [3], more than 100 µM; in [4] it was more than 100 µM; in test [5], more than 100 µM; in test [6], more than 100 µM. In addition, the TGI in test [7], in [8], in test [9] and in [10] was more than 100 µM throughout.
For the molecule `Cc1sc2nc3n(c(=O)c2c1C)N=CN(c1ccccc1)C3`, the TGI in [1], in [2], in test [3], in test [4], in test [5] and in test [6] was more than 100 µM in each case. The TGI in test [7], in test [8], in test [9] and in test [10] was more than 100 µM in each case.
On to `OCC1CCCC(n2cnc3c(=S)nc[nH]c32)O1` (stereo unspecified), for which the TGI in test [1], in [2], in test [3], in test [4], in [5] and in [6] was more than 100 µM in each case. Also, the TGI in test [7], in [8], in [9] and in test [10] was more than 100 µM in each case.
As to `O=c1c2ccccc2[nH]c(=S)n1-c1ccc(N=Nc2cccc3c(O)cccc23)cc1`, the TGI in test [1] is more than 100 µM; in [2] it was more than 100 µM; in test [3], more than 100 µM; in [4] it was 68.9 µM; in test [5], more than 100 µM; in test [6] it was more than 100 µM. Moreover, the TGI in test [7], in test [8], in test [9] and in test [10] was more than 100 µM in each case.
Turning to `c1cc2nnc1SCCSCCSc1ccc(nn1)SCCSCCS2`, the TGI in [1], in test [2], in test [3], in test [4], in test [5] and in [6] was more than 100 µM each time. Besides, the TGI in [7], in [8], in [9] and in [10] was more than 100 µM in each case.
For the molecule `CCOc1ccc(N/C(=C(/C(Cl)=C(/Cl)NCCN)[N+](=O)[O-])n2nnc3ccccc32)cc1`, the TGI in test [1] is more than 100 µM; in test [2] it was 27.6 µM; in test [3], more than 100 µM; in test [4], more than 100 µM; in test [5], more than 100 µM; in test [6], more than 100 µM. For the same molecule, the TGI in test [7] is more than 100 µM; in [8], 34.5 µM; in [9], 21.6 µM; in [10] it was more than 100 µM.
Consider `Cc1cccc(N2C(=O)C3ON(C(C(N)=O)c4ccccc4)C(c4c5ccccc5c(Cl)c5ccccc45)C3C2=O)c1C` (stereo unspecified), for which the TGI was found to be 8.08 µM in test [1]; 34.7 µM in test [2]; 18.1 µM in test [3]; 14.6 µM in test [4]; 25.3 µM in test [5]; 20.7 µM in test [6]. Besides, the TGI in [7] was 17 µM; in test [8] it was 27.3 µM; in [9], more than 50 µM; in test [10], 24.2 µM.
Regarding `Cc1ccc(N=Nc2c3c(c(O)c4ccccc24)CCC(C)(C)O3)cc1`, the TGI in test [1] was 55.7 µM; in [2], 21.6 µM; in [3], more than 100 µM; in test [4] it was 31.7 µM; in [5], 44.5 µM; in test [6] it was 34.8 µM. Moreover, the TGI in [7] is more than 100 µM; in test [8] it was more than 100 µM; in test [9], more than 100 µM; in [10], 73.3 µM.
On to `CCCN=C1CC(C)Nc2ccccc2N1` (stereo unspecified), for which the TGI in test [1], in test [2], in test [3], in [4], in test [5] and in test [6] was more than 100 µM throughout. For the same molecule, the TGI in [7], in test [8], in test [9] and in test [10] was more than 100 µM in each case.
For `CCOC(=O)c1cc2c([N+](=O)[O-])c(NC(C)=O)ccc2s1`, the TGI in test [1] is more than 100 µM; in [2], more than 100 µM; in test [3], 83.9 µM; in test [4], more than 100 µM; in [5], more than 100 µM; in [6], more than 100 µM. Further, the TGI in test [7], in test [8], in [9] and in test [10] was more than 100 µM in each case.
Take `CCCCCCCCCC[C@@H](O)[C@H]1CC[C@H]([C@H]2CC[C@H]([C@H](O)CCCCCCCCCC[C@@H]3CC(CC(C)=O)C(=O)O3)O2)O1` (stereo partly specified): the GI50 in test [1] was 3.34 µM; in test [4], 1.86 µM; in test [7] it was 5.3 µM; in [8] it was 4.95 µM; in test [9], 5.19 µM; in test [10], 1.66 µM. In addition, the TGI in [1], in [2], in test [3], in [4], in test [5] and in test [6] was more than 50 µM in each case. The TGI in test [7], in [8], in [9] and in test [10] was more than 50 µM each time.
For `COc1ccc2c(c1)c1c(n2CCN2CCOCC2)-c2ccccc2CC1`, the TGI in test [1] was more than 100 µM; in test [2], 66.6 µM; in [3] it was more than 100 µM; in test [4] it was more than 100 µM; in test [5] it was more than 100 µM; in [6], more than 100 µM. Further, the TGI in [7], in test [8], in test [9] and in test [10] was more than 100 µM each time.
Consider `O=C(O)c1ccc(NC(c2ccccc2)c2ccc3cccnc3c2O)cc1` (stereo unspecified), for which the TGI is more than 100 µM in test [1]; more than 100 µM in [2]; more than 61.4 µM in test [3]; more than 100 µM in test [4]; 36.6 µM in test [5]; more than 100 µM in test [6]. The TGI in [7] is more than 96 µM; in test [8], more than 100 µM; in [9], more than 55.8 µM; in [10], 34.6 µM.
With `O=C1CC(O)c2c1csc2Br` (stereo unspecified), the TGI in [1] was 43.3 µM; in test [2], 82.4 µM; in test [3], 55 µM; in test [4], 41.1 µM; in test [5], 96.2 µM; in test [6] it was more than 100 µM. Besides, the TGI was more than 100 µM in test [7], 88.6 µM in test [8], 37.2 µM in test [9] and 53.3 µM in test [10].
Turning to `COC(=O)C1=C(C(=O)OC)C2OC1C1C2C2(C)C(C)=C(C)C1(C)S2=O` (stereo unspecified), the TGI is 45.4 µM in [1]; 20.9 µM in test [2]; more than 55.7 µM in test [3]; 19.4 µM in test [4]; 24.6 µM in [5]; 38.8 µM in test [6]. Also, the TGI in test [7] came out at 45.7 µM; in [8], 28.9 µM; in test [9] it was 12.6 µM; in test [10], 17.6 µM.
For `COc1ccc(N2C(=O)C3c4[nH]c5ccc([N+](=O)[O-])cc5c4C4CCC(C(C)(C)C)CC4C3C2=O)cc1` (stereo unspecified), the TGI was more than 100 µM in test [1]; more than 100 µM in [2]; 36.5 µM in test [3]; more than 100 µM in test [4]; more than 100 µM in [5]; more than 100 µM in [6]. The TGI in test [7] was more than 100 µM; in test [8], more than 100 µM; in test [9], more than 100 µM; in test [10], 51.6 µM.
For the molecule `Cc1c(/C=N\NC(=S)N2CCN(C(=S)N/N=C\c3c(C)n(C)n(-c4ccccc4)c3=O)CC2)c(=O)n(-c2ccccc2)n1C`, the TGI in test [1] is more than 100 µM; in test [2] it was more than 100 µM; in [3], 73.9 µM; in test [4] it was 64.7 µM; in test [5], more than 100 µM; in test [6], more than 100 µM. In addition, the TGI in [7], in test [8], in test [9] and in [10] was more than 100 µM throughout.
`COc1ccc(Nc2c(C#N)c3n(c4ccccc24)c2ccccc2[n+]3C)cc1OC`: the TGI in test [1] turned out to be 41.7 µM; in test [2] it was 15.8 µM; in [3] it was 8.25 µM; in [4], 14.8 µM; in test [5], 32.5 µM; in [6], 10.4 µM. Also, the TGI in [7] turned out to be 8.38 µM; in [8], 8.25 µM; in [9], 15.7 µM; in test [10], 7.23 µM.
Take `Cc1ccc(S(=O)(=O)N2CCN3C(=O)c4ccccc4C32c2ccc(F)cc2)cc1` (stereo unspecified): the TGI in test [1], in test [2], in [3], in [4], in test [5] and in test [6] was more than 100 µM throughout. Moreover, the TGI in test [7], in test [8], in test [9] and in test [10] was more than 100 µM in each case.
`O=c1[nH]cnc2c(C3OC(CO)C(O)C3O)c[nH]c12` (stereo unspecified): the TGI in [1], in test [2], in [3], in test [4], in [5] and in test [6] was more than 100 µM each time. The TGI in [7], in [8], in test [9] and in test [10] was more than 100 µM in each case.
In the case of `Cc1ccc2c(c1C)CC1(Cc3c(ccc4c3CCC4)C1=O)C2=O` (stereo unspecified), the TGI in test [1], in test [2], in test [3], in test [4], in test [5] and in test [6] was more than 100 µM in each case. In addition, the TGI in test [7], in test [8], in [9] and in [10] was more than 100 µM throughout.
As for `N#Cc1c(N)[nH]c(=S)c(C#N)c1-c1cccc(Cl)c1`, the TGI was more than 100 µM in test [1]; more than 100 µM in test [2]; more than 100 µM in [3]; 49.7 µM in test [4]; more than 100 µM in test [5]; more than 100 µM in [6]. In addition, the TGI in [7] is 60.1 µM; in test [8] it was 56.1 µM; in test [9], more than 100 µM; in test [10], more than 100 µM.
`O=C1CC2C=CC(O)C(C1)C2` (stereo unspecified): the TGI in test [1], in test [2], in [3], in test [4], in test [5] and in test [6] was more than 100 µM throughout. Also, the TGI in test [7], in [8], in test [9] and in test [10] was more than 100 µM in each case.
On to `O=c1[nH]c2nc3ccccc3c(=O)n2/c1=C/c1ccc(O)cc1`, for which the TGI in test [1] was more than 100 µM; in test [2] it was more than 100 µM; in [3], more than 100 µM; in test [4], 69.8 µM; in test [5], more than 100 µM; in [6] it was more than 100 µM. Moreover, the TGI was more than 100 µM in [7], more than 100 µM in test [8], 56.4 µM in test [9] and more than 100 µM in test [10].
Regarding `COC(=O)C1(Cc2ccccc2)Cc2cc3c(cc2C1=O)CCC3` (stereo unspecified), the TGI is 81.6 µM in test [1]; 56.6 µM in test [2]; more than 100 µM in test [3]; 36.9 µM in test [4]; more than 100 µM in test [5]; more than 100 µM in test [6]. Also, the TGI in [7], in test [8], in test [9] and in test [10] was more than 100 µM throughout.
